Test results: ChEMBL document CHEMBL1137364, “Synthesis and structure-activity relationships of uracil nucleotide derivatives and analogues as agonists at human P2Y2, P2Y4, and P2Y6 receptors” (J Med Chem, 2006)
Active and inactive are the calls of the source. The rule behind the calls is not given here.

Tests used:
P2Y purinoceptor 2 [1] = target: T1, P2Y purinoceptor 2 (Homo sapiens, UniProt P41231); test: Agonist activity at human P2Y2 receptor expressed in 1321N1 cells assessed as IP accumulation by SPA at 1 uM; format: functional, cell-based
P2Y purinoceptor 2 [2] = target: T1, P2Y purinoceptor 2; test: Agonist activity at human P2Y2 receptor expressed in 1321N1 cells assessed as IP accumulation by SPA; format: functional, cell-based
P2Y purinoceptor 6 [3] = target: T2, P2Y purinoceptor 6 (Homo sapiens, UniProt Q15077); test: Agonist activity at human P2Y6 receptor expressed in 1321N1 cells assessed as IP accumulation by SPA; format: functional, cell-based
Target sequence in this assay (Q15077 whole entry): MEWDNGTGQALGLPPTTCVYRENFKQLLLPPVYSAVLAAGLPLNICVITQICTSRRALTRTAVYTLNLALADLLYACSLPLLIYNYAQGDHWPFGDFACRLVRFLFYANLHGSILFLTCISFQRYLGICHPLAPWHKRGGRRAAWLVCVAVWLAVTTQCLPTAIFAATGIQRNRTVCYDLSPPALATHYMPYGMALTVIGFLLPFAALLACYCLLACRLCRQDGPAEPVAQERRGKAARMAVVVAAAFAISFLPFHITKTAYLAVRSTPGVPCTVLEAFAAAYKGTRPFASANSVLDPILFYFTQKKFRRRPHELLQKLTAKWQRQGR

P2Y purinoceptor 6 [4] = target: T2, P2Y purinoceptor 6; test: Agonist activity at human P2Y6 receptor expressed in 1321N1 cells assessed as IP accumulation by SPA at 1 uM; format: functional, cell-based
Target sequence in this assay (Q15077 whole entry): as above

P2Y purinoceptor 6 [5] = target: T2, P2Y purinoceptor 6; test: Agonist activity at human P2Y6 receptor expressed in 1321N1 cells assessed as IP accumulation by SPA at 100 uM; format: functional, cell-based
Target sequence in this assay (Q15077 whole entry): as above

P2Y purinoceptor 2 [6] = target: T1, P2Y purinoceptor 2; test: Agonist activity at human P2Y2 receptor expressed in 1321N1 cells assessed as IP accumulation by SPA at 100 uM; format: functional, cell-based
P2Y purinoceptor 4 [7] = target: T3, P2Y purinoceptor 4 (Homo sapiens, UniProt P51582); test: Agonist activity at human P2Y4 receptor expressed in 1321N1 cells assessed as IP accumulation by SPA; format: functional, cell-based
Target sequence in this assay (P51582 whole entry): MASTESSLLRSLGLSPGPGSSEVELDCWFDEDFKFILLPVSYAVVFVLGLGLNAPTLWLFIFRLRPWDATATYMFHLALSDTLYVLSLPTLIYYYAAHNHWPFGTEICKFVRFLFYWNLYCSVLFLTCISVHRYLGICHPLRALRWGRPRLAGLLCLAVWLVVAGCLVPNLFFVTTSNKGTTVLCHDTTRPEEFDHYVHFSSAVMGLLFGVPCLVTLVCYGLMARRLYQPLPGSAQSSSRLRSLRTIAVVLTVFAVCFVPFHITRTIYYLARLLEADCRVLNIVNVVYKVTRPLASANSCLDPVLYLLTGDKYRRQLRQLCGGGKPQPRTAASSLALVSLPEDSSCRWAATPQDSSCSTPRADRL

P2Y purinoceptor 4 [8] = target: T3, P2Y purinoceptor 4; test: Agonist activity at human P2Y4 receptor expressed in 1321N1 cells assessed as IP accumulation by SPA at 100 uM; format: functional, cell-based
Target sequence in this assay (P51582 whole entry): as above

P2Y purinoceptor 2 [9] = target: T1, P2Y purinoceptor 2; test: Antagonist activity at human P2Y2 receptor assessed as inhibition of UTP-induced IP accumulation at 100 uM; format: functional
P2Y purinoceptor 4 [10] = target: T3, P2Y purinoceptor 4; test: Agonist activity at human P2Y4 receptor expressed in 1321N1 cells assessed as IP accumulation by SPA at 1 uM; format: functional, cell-based
Target sequence in this assay (P51582 whole entry): as above

P2Y purinoceptor 4 [11] = target: T3, P2Y purinoceptor 4; test: Antagonist activity at human P2Y4 receptor assessed as inhibition of UTP-induced IP accumulation at 100 uM
Target sequence in this assay (P51582 whole entry, looked up): as the sequence (P51582 whole entry) above

P2Y purinoceptor 6 [12] = target: T2, P2Y purinoceptor 6; test: Antagonist activity at human P2Y6 receptor assessed as inhibition of UDP-induced IP accumulation at 100 uM
Target sequence in this assay (Q15077 whole entry, looked up): as the sequence (Q15077 whole entry) above

T1 sequence (P41231 whole entry): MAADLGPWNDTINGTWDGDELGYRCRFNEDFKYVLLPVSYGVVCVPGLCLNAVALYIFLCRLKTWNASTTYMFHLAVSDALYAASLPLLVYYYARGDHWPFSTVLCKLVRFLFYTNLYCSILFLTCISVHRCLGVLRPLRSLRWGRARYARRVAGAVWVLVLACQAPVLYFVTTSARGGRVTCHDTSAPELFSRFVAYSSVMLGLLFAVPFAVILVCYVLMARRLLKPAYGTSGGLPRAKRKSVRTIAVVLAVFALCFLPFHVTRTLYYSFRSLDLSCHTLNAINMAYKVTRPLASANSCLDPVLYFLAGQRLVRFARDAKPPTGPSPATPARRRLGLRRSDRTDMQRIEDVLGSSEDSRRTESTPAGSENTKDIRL

Compound	Activity (P2Y purinoceptor 2 [1])	EC50 (P2Y purinoceptor 2 [2])	EC50 (P2Y purinoceptor 6 [3])	Activity (P2Y purinoceptor 6 [4])	Activity (P2Y purinoceptor 6 [5])	Activity (P2Y purinoceptor 2 [6])	EC50 (P2Y purinoceptor 4 [7])	Activity (P2Y purinoceptor 4 [8])	Activity (P2Y purinoceptor 2 [9])	Activity (P2Y purinoceptor 4 [10])	Activity (P2Y purinoceptor 4 [11])	Activity (P2Y purinoceptor 6 [12])
O=c1[nH]c(=O)n([C@@H]2O[C@H](COP(=O)(O)O)[C@@H](O)[C@H]2O)cc1Br	2%	> 1000 nM	> 1000 nM	43%	124%	70%	> 100 µM	21%	–	–	–	–
O=c1ccn([C@@H]2O[C@H](COP(=O)(O)O)[C@@H](O)[C@H]2O)c(=S)[nH]1	6%	≥ 100000 nM	> 100000 nM	–	18%	51%	> 100 µM	2%	–	–	–	–
Cc1cc(=O)n([C@@H]2O[C@H](COP(=O)(O)OP(=O)(O)O)[C@@H](O)[C@H]2O)c(=O)[nH]1	25%	> 1000 nM	> 1000 nM	0%	108%	69%	> 100 µM	7%	–	–	–	–
O=c1ccn([C@@H]2O[C@H](COP(=O)(O)OP(=O)(O)OP(=O)(O)O)[C@@H](O)[C@H]2O)c(=S)[nH]1	–	50 nM	> 1000 nM	44%	118%	–	1.77 µM	–	–	–	–	–
O=c1[nH]c(=O)n([C@@H]2O[C@H](COP(=O)(O)OP(=O)(O)C(Cl)(Cl)P(=O)(O)O)[C@@H](O)[C@H]2O)cc1Br	–	354 nM	120 nM	–	–	–	3.99 µM	–	–	–	–	–
Cn1c(=O)ccn([C@@H]2O[C@H](COP(=O)(O)OP(=O)(O)O)[C@@H](O)[C@H]2O)c1=O	10%	> 1000 nM	> 1000 nM	8%	121%	99%	> 100 µM	0%	–	–	–	–
O=c1ccn([C@@H]2O[C@H](COP(=O)(O)OP(=O)(O)OP(=O)(O)O)[C@@H](O)[C@H]2O)c(=O)[nH]1 [URIDINE TRIPHOSPHATE]	–	43 nM	–	–	–	–	0.087 µM	–	–	–	–	–
Cn1c(=O)ccn([C@@H]2O[C@H](COP(=O)(O)OP(=O)(O)OP(=O)(O)O)[C@@H](O)[C@H]2O)c1=O	–	564 nM	> 1000 nM	2%	109%	–	2.92 µM	–	–	–	–	–
Cn1c(=O)ccn([C@@H]2O[C@H](COP(=O)(O)O)[C@@H](O)[C@H]2O)c1=O	3%	> 100000 nM	≥ 100000 nM	0%	51%	30%	> 100 µM	3%	–	–	–	–
Cc1cc(=O)n([C@@H]2O[C@H](COP(=O)(O)O)[C@@H](O)[C@H]2O)c(=O)[nH]1	–	> 100000 nM	> 100000 nM	–	2%	17%	> 100 µM	6%	–	–	–	–
CCCc1cc(=O)n([C@@H]2O[C@H](COP(=O)(O)OP(=O)(O)OP(=O)(O)O)[C@H]3OP(=O)(O)O[C@H]32)c(=O)[nH]1	24%	> 1000 nM	> 100000 nM	–	8%	69%	> 100 µM	1%	–	–	–	–
O=c1cc(O)n([C@@H]2O[C@H](COP(=O)(O)OP(=O)(O)OP(=O)(O)O)[C@@H](O)[C@H]2O)c(=O)[nH]1	6%	> 1000 nM	> 100000 nM	0%	43%	80%	> 100 µM	12%	inactive	11%	inactive	inactive
O=C(Cn1c(=O)ccn([C@@H]2O[C@H](COP(=O)(O)OP(=O)(O)OP(=O)(O)O)[C@@H](O)[C@H]2OP(=O)(O)O)c1=O)c1ccccc1	54%	≤ 1000 nM	> 1000 nM	0%	75%	107%	> 100 µM	0%	–	–	–	–
CCCc1cc(=O)n([C@@H]2O[C@H](COP(=O)(O)OP(=O)(O)O)[C@@H](O)[C@H]2O)c(=O)[nH]1	–	> 100000 nM	> 1000 nM	–	23%	28%	> 100 µM	0%	–	–	–	inactive
CCCc1cc(=O)n([C@@H]2O[C@H](COP(=O)(O)O)[C@@H](O)[C@H]2O)c(=O)[nH]1	–	> 100000 nM	> 100000 nM	–	26%	9%	> 100 µM	5%	–	–	–	–
O=C(Cn1c(=O)ccn([C@@H]2O[C@H](COP(=O)(O)OP(=O)(O)O)[C@@H](O)[C@H]2O)c1=O)c1ccccc1	22%	> 1000 nM	70 nM	–	–	85%	> 100 µM	11%	–	–	–	–
O=c1[nH]c(=O)n([C@@H]2O[C@H](COP(=O)(O)OP(=O)(O)OP(=O)(O)O)[C@@H](O)[C@H]2O)cc1Br	–	347 nM	291 nM	–	–	–	3.46 µM	–	–	–	–	–
O=C(Cn1c(=O)ccn([C@@H]2O[C@H](COP(=O)(O)O)[C@@H](O)[C@H]2O)c1=O)c1ccccc1	–	> 100000 nM	> 100000 nM	–	16%	9%	> 100 µM	2%	inactive	–	inactive	inactive
O=C(Cn1c(=O)ccn([C@@H]2O[C@H](COP(=O)(O)OP(=O)(O)OP(=O)(O)O)[C@@H](O)[C@H]2O)c1=O)c1ccccc1	38%	> 1000 nM	> 1000 nM	27%	100%	103%	> 1 µM	54%	–	10%	–	–
O=c1ccn([C@@H]2O[C@H](COP(=O)(O)OP(=O)(O)O)[C@@H](O)[C@H]2O)c(=O)[nH]1 [URIDINE_DIPHOSPHATE]	–	–	42 nM	–	–	–	–	–	–	–	–	–
O=c1cc(O)n([C@@H]2O[C@H](COP(=O)(O)O)[C@@H](O)[C@H]2O)c(=O)[nH]1	–	> 100000 nM	> 100000 nM	–	0%	11%	> 100 µM	11%	–	–	–	–
CCCc1cc(=O)n([C@@H]2O[C@H](COP(=O)(O)OP(=O)(O)OP(=O)(O)O)[C@@H](O)[C@H]2O)c(=O)[nH]1	16%	> 1000 nM	> 100000 nM	0%	23%	83%	> 100 µM	4%	inactive	–	inactive	inactive
O=c1ccn([C@@H]2O[C@H](COP(=O)(O)OP(=O)(O)O)[C@@H](O)[C@H]2O)c(=S)[nH]1	42%	> 1000 nM	239 nM	–	–	91%	> 1 µM	73%	–	18%	–	–
